Structures are written as SMILES.

Experiment [1] has as its system phosphorylation of ERK, KRAS G12V in SW620. Description: pERK inhibition assay, KRAS G12V. The class given is cell-based, human. The settings on record: Homo sapiens, SW-620, SW620, 4 hours. The method, then:
(§1) This assay is to measure the ability of test compounds in inhibiting the phosphorylation of ERK, the downstream signaling of KRAS G12C in NCJ-H358 cells, KRAS G12D in AGS cells, and KRAS G12V in SW620. NCJ-H358 (ATCC-CRL5807) cells, AGS (ATCC-CRL-1739) cells, SW620 (ATCC-CCL-227) cells were all grown and maintained using RPMI-1640 medium (Thermo Fisher Scientific) with 10% fetal bovine serum and 1% penicillin/streptomycin. On the day prior to compound addition, cells were plated in tissue culture-treated 96 well plates (Corning-3699) at a density of 30,000 cell/well, 20,000 cell/well, 30,000 cell/well for NCJ-H358, AGS and SW620 respectively, and allowed for attachment overnight. Diluted compounds were then added in a final concentration of 0.5% DMSO. After 4 hours of incubation, the medium was removed, 100 μL of 4% formaldehyde was added, and the assay plates were incubated at room temperature for 20 minutes. The plates were then washed once with phosphate buffered saline (PBS), and permeabilized with 100 μL of chilled methanol for 10 minutes. Non-specific antibody binding to the plates was blocked using 50 μL 1×BSA blocking buffer (Thermo-37520, 10-fold dilution by Phosphate-Buffered Saline Tween (PBST) for at least 1 hour at room temperature.
(§2) The amount of phosphor-ERK was determined using an antibody specific for phosphorylated form of ERK. Primary antibody (pERK, CST-4370, Cell Signaling Technology) was diluted 1:300 in blocking buffer, with 50 μL aliquoted to each well, and incubated overnight at 4′° C. Cells was washed five times for 5 minutes with PBST. Secondary antibody ([…] anti-rabbit IgG, CST-7074, Cell Signaling Technology) was diluted 1:1000 in blocking buffer, and 50 μL was added to each well and incubated 1-2 hrs at room temperature. Cells was washed 5 times for 5 minutes with PBST, 100 μL TMB ELISA substrate (abcam-ab171523) were added and gently shake for 20 minutes. 50 μL stop solution (abcam-ab171529) were added, and then read the signal (OD450) by EnVision.
(§3) IC50 was determined by fitting a 4-parameter sigmoidal concentration response model.

The test system of experiment [2] is NCI-H358 (ATCC-CRL5807) cells. Put plainly: Cell viability assay, G12C (NCI-H358). The settings on record: Homo sapiens; KRAS cell viability, NCI-H358, 72 hrs, Cell Counting Kit-8. The class given is cell-based, human. On the procedure: (§4) The purpose of this cellular assay was to determine the effects of test compounds on the proliferation of human cancer cell lines NCI-H358 (ATCC-CRL5807) cells, AGS (ATCC-CRL-1739) cells, SW620 (ATCC-CCL-227) over a 3-day treatment period by quantifying the amount of NADPH present at endpoint using Cell Counting Kit-8.
(§5) Cells were seeded at 5,000 cells/well (NCI-H358), 2,000 cells/well (AGS) 2,000 cells/well (SW620) in 96-well assay plates (Corning-3699) and incubated overnight. On the day of the assay, diluted compounds were then added in a final concentration of 0.5% DMSO. After 72 hrs incubation, a tenth of the volume of cell counting kit 8 (Dnjindo-CK04) was added into each well. Read the signal (OD450 minus OD650) using EnVision after 2 hrs incubation. IC50 was determined by fitting a 4-parameter sigmoidal concentration response model.

The next experiment has as its target KRAS G12C-BRAF complex (Homo sapiens (Human), UniProt P01116+P62937, G12C). Description: KRAS-BRAF with CYPA (500 nM) interaction assay (TR-FRET), G12C. The class given is biochemical. On the procedure:
(§6) In this example, TR-FRET was also used to measure the compound or compound-CYPA dependent disruption of the KRAS G12C-BRAF complex. This protocol was also used to measure disruption of KRAS G12D or KRAS G12V binding to BRAF by a compound of the invention, respectively. In assay buffer containing 25 mM HEPES PH=7.4 (4-(2-hydroxyethyl)-1-piperazineethanesulfonic acid, Thermo, 15630080), 0.002% Tween20, 0.1% BSA, 100 mM NaCl, 5 mM MgCl2, 10 μM GMPPNP (Guanosine 5′-[β,γ-imido]triphosphate trisodium salt hydrate, Sigma, G0635), […] 384-well assay plate at final concentrations of 50 nM, 6.25 nM and 1 nM, respectively. Compound was present in plate wells as a 16-point 3-fold dilution series starting at a final concentration of 10 μM and incubated for 3 hours. A mixture of MAb Anti-6His-XL665 (Cisbio, 61HISXLB) and Mab anti-GST-TB cryptate (Cisbio, 61GSTTLB) was then added at a final concentration of 6.67 nM and 0.21 nM, respectively, and the plate was incubated for an additional 1.5 hours. TR-FRET signal was read on a PHERstar FSX microplate reader (Ex320 nm, Em 665/615 nm). Compounds that facilitate disruption of the KRAS-BRAF complex were identified as those eliciting a decrease in the TR-FRET ratio relative to DMSO control wells.
A general note: TR-FRET usually uses a lanthanide donor and a delayed reading to cut background.

Experiment [3] has as its system AGS (ATCC-CRL-1739) cells. Description: Cell viability assay, G12D (AGS). The settings on record: Homo sapiens, KRAS cell viability, 72 hrs, Cell Counting Kit-8. The class given is cell-based, human. On the procedure:
as §4, §5

In a further experiment the test system is SW620 (ATCC-CCL-227). Put plainly: Cell viability assay, G12V (SW620). The class given is cell-based, human. Particulars: Homo sapiens, SW-620; KRAS cell viability, SW620, 72 hrs, Cell Counting Kit-8. The method, then: as §4, §5
(In general: Tetrazolium assays rely on reduction of a dye to a coloured formazan, in cell work by metabolically active cells.)

The test system of experiment [4] is phosphorylation of ERK, KRAS G12C in NCJ-H358 cells. Put plainly: pERK inhibition assay, KRAS G12C. It is filed as cell-based, human. Particulars: Homo sapiens, 4 hours. The method, then: as §1, §2, §3
Experiment [5] concerns the target KRAS G12V binding to BRAF (Homo sapiens (Human), UniProt P01116+P62937, G12V). Description: KRAS-BRAF with CYPA (500 nM) interaction assay (TR-FRET), G12V. It is filed as biochemical. On the procedure:
In this example, TR-FRET was also used to measure the compound or compound-CYPA dependent disruption of the KRAS G12C-BRAF complex. This protocol was also used to measure disruption of KRAS G12D or KRAS G12V binding to BRAF by a compound of the invention, respectively. In assay buffer containing 25 mM HEPES PH=7.4 (4-(2-hydroxyethyl)-1-piperazineethanesulfonic acid, Thermo, 15630080), 0.002% Tween20, 0.1% BSA, 100 mM NaCl, 5 mM MgCl2, 10 μM GMPPNP (Guanosine 5′-[β,γ-imido]triphosphate trisodium salt hydrate, Sigma, G0635), […], GMPPNP loaded 6His-KRAS proteins, and […], 6.25 nM and 1 nM, respectively. Compound was present in plate wells as a 16-point 3-fold dilution series starting at a final concentration of 10 μM and incubated for 3 hours. A mixture of MAb Anti-6His-XL665 (Cisbio, 61HISXLB) and Mab anti-GST-TB cryptate (Cisbio, 61GSTTLB) was then added at a final concentration of 6.67 nM and 0.21 nM, respectively, and the plate was incubated for an additional 1.5 hours. TR-FRET signal was read on a PHERstar FSX microplate reader (Ex320 nm, Em 665/615 nm). Compounds that facilitate disruption of the KRAS-BRAF complex were identified as those eliciting a decrease in the TR-FRET ratio relative to DMSO control wells.

Experiment [6] has as its target KRAS G12D binding to BRAF (Homo sapiens (Human), UniProt P01116+P62937, G12D). Description: KRAS-BRAF with CYPA (500 nM) interaction assay (TR-FRET), G12D. It is filed as biochemical. On the procedure: as §6

Sequence of KRAS G12V binding to BRAF (P01116-2 other isoform, or with tags, fused parts or gaps G12V): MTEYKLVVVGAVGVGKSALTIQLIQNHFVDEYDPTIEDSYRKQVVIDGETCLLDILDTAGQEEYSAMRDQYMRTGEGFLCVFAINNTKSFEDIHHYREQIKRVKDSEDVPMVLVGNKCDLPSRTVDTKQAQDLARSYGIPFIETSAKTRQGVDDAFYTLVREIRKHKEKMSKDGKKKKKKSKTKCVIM
Sequence of KRAS G12V binding to BRAF (P62937 whole entry): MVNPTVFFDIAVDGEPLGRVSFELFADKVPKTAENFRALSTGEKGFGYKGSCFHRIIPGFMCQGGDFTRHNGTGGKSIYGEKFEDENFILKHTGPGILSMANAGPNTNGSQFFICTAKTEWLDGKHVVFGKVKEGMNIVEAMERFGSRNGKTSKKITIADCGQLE
Sequence of KRAS G12D binding to BRAF (P01116-2 other isoform, or with tags, fused parts or gaps G12D): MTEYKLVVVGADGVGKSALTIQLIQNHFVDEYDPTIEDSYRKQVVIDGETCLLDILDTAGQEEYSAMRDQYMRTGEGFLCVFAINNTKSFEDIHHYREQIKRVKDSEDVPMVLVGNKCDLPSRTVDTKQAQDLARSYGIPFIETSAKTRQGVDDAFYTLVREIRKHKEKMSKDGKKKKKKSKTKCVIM
Sequence of KRAS G12D binding to BRAF (P62937 whole entry): as the sequence (P62937 whole entry) above
Sequence of KRAS G12C-BRAF complex (P01116-2 other isoform, or with tags, fused parts or gaps G12C): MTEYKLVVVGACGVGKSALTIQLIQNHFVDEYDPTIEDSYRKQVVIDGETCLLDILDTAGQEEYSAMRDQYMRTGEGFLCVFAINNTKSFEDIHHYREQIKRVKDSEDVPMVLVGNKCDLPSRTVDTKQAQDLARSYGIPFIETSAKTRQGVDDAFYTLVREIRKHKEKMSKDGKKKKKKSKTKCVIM
Sequence of KRAS G12C-BRAF complex (P62937 whole entry): as the sequence (P62937 whole entry) above

Turning to `CCn1c(-c2cc(N3CCN(CC(F)(F)F)CC3)cnc2[C@H](C)OC)c2c3cc(c(F)cc31)-c1csc(n1)C[C@H](NC(=O)[C@H](C(C)C)N1CC[C@@]3(CCN(C(=O)[C@H](F)Cl)C3)C1=O)C(=O)N1CCC[C@H](N1)C(=O)OCC(C)(C)C2` (atropisomer, axis not shown; (M)) [Example 35, (2S)-2-[(5R)-7-[(2R)-2-chloro-2-fluoro-acetyl]-1-oxo-2,7-diazaspiro[4.4]nonan-2-yl]-N-[(7S,13S)-21-ethyl-24-fluoro-(20M)-20-[2-[(1S)-1-methoxyethyl]-5-[4-(2,2,2-trifluoroethyl)piperazin-1-yl]-3-pyridyl]-17,17-dimethyl-8,14-dioxo-15-oxa-4-thia-9,21,27,28-tetrazapentacyclo[17.5.2.1^2,5.1^9,13.0^22,26]octacosa-1(25),2,5(28),19,22(26),23-hexaen-7-yl]-3-methyl-butanamide], the IC50 in experiment [1] was 50 nM; in experiment [2], under 1 nM; at KRAS G12C-BRAF complex, 23 nM; in experiment [3], 69 nM; in the experiment with SW620 (ATCC-CCL-227), 3530 nM; in experiment [4], 3 nM. For the same compound, the concentration for half-maximal inhibition (IC50) in experiment [5] was over 10000 nM; in experiment [6], 3220 nM.
Turning to `CCn1c(-c2cc(N3CCN(C)CC3)cnc2[C@H](C)OC)c2c3cc(c(F)cc31)-c1csc(n1)C[C@H](NC(=O)[C@H](C(C)C)N(C)C(=O)C1(F)CCN(C(=O)[C@H](F)Cl)CC1)C(=O)N1CCC[C@H](N1)C(=O)OCC(C)(C)C2` (atropisomer, axis not shown; (M)) [Example 34, 1-[(2R)-2-chloro-2-fluoro-acetyl]-N-[(1S)-1-[[(7S,13S)-21-ethyl-24-fluoro-(20M)-20-[2-[(1S)-1-methoxyethyl]-5-(4-methylpiperazin-1-yl)-3-pyridyl]-17,17-dimethyl-8,14-dioxo-15-oxa-4-thia-9,21,27,28-tetrazapentacyclo[17.5.2.1^2,5.1^9,13.0^22,26]octacosa-1(25),2,5(28),19,22(26),23-hexaen-7-yl]carbamoyl]-2-methyl-propyl]-4-fluoro-N-methyl-piperidine-4-carboxamide], the 50% inhibitory concentration (IC50) was 12 nM in experiment [1]; under 1 nM in experiment [2]; 47 nM against KRAS G12C-BRAF complex; 43 nM in experiment [3]; 40 nM in the experiment with SW620 (ATCC-CCL-227); 2 nM in experiment [4]. In addition, the results for the IC50 in experiment [5] and in experiment [6] were 724 nM and 909 nM, respectively.
For the compound `CCn1c(-c2cc(N3CCN(CC(F)(F)F)CC3)cnc2[C@H](C)OC)c2c3cc(c(F)cc31)-c1csc(n1)C[C@H](NC(=O)[C@H](C(C)C)N1CCC3(CCN(C(=O)[C@H](F)Cl)CC3)C1=O)C(=O)N1CCC[C@H](N1)C(=O)OCC(C)(C)C2` (atropisomer, axis not shown; (M)) [Example 39, (2S)-2-[8-[(2R)-2-chloro-2-fluoro-acetyl]-1-oxo-2,8-diazaspiro[4.5]decan-2-yl]-N-[(7S,13S)-21-ethyl-24-fluoro-(20M)-20-[2-[(1S)-1-methoxyethyl]-5-[4-(2,2,2-trifluoroethyl)piperazin-1-yl]-3-pyridyl]-17,17-dimethyl-8,14-dioxo-15-oxa-4-thia-9,21,27,28-tetrazapentacyclo[17.5.2.1^2,5.1^9,13.0^22,26]octacosa-1(25),2,5(28),19,22(26),23-hexaen-7-yl]-3-methyl-butanamide], the half-maximal inhibitory concentration (IC50) is 44 nM in experiment [1]; under 1 nM in experiment [2]; 104 nM against KRAS G12C-BRAF complex; 112 nM in experiment [3]; 184 nM in the experiment with SW620 (ATCC-CCL-227); 6 nM in experiment [4]. For the same compound, the IC50 in experiment [5] and in experiment [6] was over 10000 nM throughout.

In general, IC50 refers to the concentration at which inhibition is half-maximal. Low readings indicate inhibition by little substance, high ones a need for much substance.

Source of the values: US20250206761A1, “HALOINDOLE MACROCYCLIC COMPOUNDS FOR THE TREATMENT OF CANCER” (Hoffmann-La Roche Inc., priority 2022, published 2025).
